The values below come from PMC8678981, “PET Imaging of VMAT2 with the Novel Radioligand [^18F]FE-DTBZ-d4 in Nonhuman Primates: Comparison with [^11C]DTBZ and [^18F]FE-DTBZ” (ACS Chemical Neuroscience, 2021).

Series [1] relates to VMAT2. The note with it: rats; cited from earlier work.
Series [2] can be described thus: Plasma protein binding by ultrafiltration. The format is in vitro ADME. The note with it: cynomolgus, cynomolgus monkey, pH 7.4, NHP plasma, baseline, read-out: plasma free fraction (fP). How it is done:
Plasma protein binding of all three radioligands was measured in duplicate in baseline conditions. NHP blood plasma (500 μL) and a PBS solution (pH 7.4, KCl 0.2 mg, KH2PO4 0.2 mg, Na2HPO4 1.42 mg, NaCl 8 mg in 1 mL) were mixed with the respective radioligand (50 μL, approx. 20 MBq in PBS). The plasma mixture was incubated for 10 min at room temperature and a small portion (20 μL) from each incubation mixture was measured in a well counter. A portion (200 μL) from all individual incubation mixtures was pipetted out into ultrafiltration tubes (Millipore Centrifree YM-30) and centrifuged at 3000 rpm for 15 min. Samples (20 μL) from each filtrate were counted in a well counter. The following formula was used to calculate the protein-bound fraction. [drawing 1] where Cpla (total) is the radioactivity concentration of the incubation mixture in plasma, CPBS (total) is the radioactivity concentration of the incubation mixture in PBS, and Cpla (filtrate) and […] the radioactivity concentrations from filtrate samples.

For series [3] the following is noted: cited from earlier work.
Series [4] is described as follows: PET whole brain uptake and kinetics in cynomolgus monkeys (HRRT). As to conditions: whole brain peak, baseline PET.
Method: Anesthesia was induced by intramuscular injection of ketamine hydrochloride (approximately 10 mg/kg, Ketaminol vet. Intervet) and maintained by the administration of a mixture of sevoflurane, oxygen, and medical air after endotracheal intubation. The head was immobilized using a fixation device.[32]
Three female cynomolgus monkeys (NHP1, NHP2, and NHP3) (weight of 5.8–6.95 kg) were studied in 10 different experimental days for a total of 12 PET experiments. All PET experiments were performed using a high-resolution research tomograph (HRRT) PET scanner (Siemens Molecular Imaging, Knoxville, TN). A 6 min transmission scan was performed every time before the injection of the radioligands using a single ^137Cs source. […]
All three monkeys underwent two PET measurements on the same day at once. […] Venous blood sampling was performed manually for the measurement of protein binding, blood, and plasma radioactivity and radiometabolite analysis. […]
The regions of interest (ROIs) were delineated manually on the MRI images of each NHP for putamen, caudate, midbrain, occipital cortex, and cerebellum. […] Quantification was performed using the Logan graphical analysis, and the cerebellum was used as a reference region. […]
Series [5] is described as follows: Radiometabolite analysis in monkey plasma by gradient radio-HPLC. The format is in vivo, cynomolgus monkey. As to conditions: 90 min after injection. How it is done: Radiometabolite analysis was performed following a method reported elsewhere.[34] Venous blood samples (2 mL) were obtained from the monkey at different time points such as 2.5, 15, 30, 45, 60, 90, 120, 150, and 180 min after injection of [^18F]FE-DTBZ/[^18F]FE-DTBZ-d4. For [^11C]-DTBZ, venous blood samples (2 mL) were obtained at time points 2.5, 15, 30, 45, 60, and 90 min after injection. Collected blood was centrifuged at 2000g for 2 min to obtain the plasma (0.5 mL). The plasma was mixed with 1.4 times volume of acetonitrile followed by centrifugation at 2000g for 4 min. The extract was separated from the pellet and was diluted with water before injecting into the HPLC equipped with a reverse-phase μ-Bondapak HPLC column, (300 mm × 10 mm I.D). […] Peaks for radioactive compounds eluting from the column were integrated and their areas were expressed as a percentage of the sum of the areas of all detected radioactive compounds (decay-corrected to the time of injection on the HPLC). To calculate the recovery of radioactivity from the system, an aliquot (2 mL) of the eluate from the HPLC column was measured and divided by the amount of the total injected radioanalyte.

Series [6] has as its system VMAT2. Briefly: PET quantification of VMAT2 binding (BPND, Logan noninvasive analysis, cerebellum reference). The note with it: for Binding potential (BPND) caudate / Binding potential (BPND) midbrain / Binding potential (BPND) putamen: Logan noninvasive analysis, cerebellum as reference region; for peak equilibrium: cynomolgus monkey brain, baseline PET. The format is in vivo, cynomolgus monkey. The text has this: The outcome measure was the binding potential (BPND).

The subject of series [7] is VMAT2. Briefly: Pretreatment and displacement PET with tetrabenazine using [^18F]FE-DTBZ-d4. The format is in vivo, cynomolgus monkey. The note with it: tetrabenazine 2 mg/kg.
Method: In NHP1, one PET measurement was performed after pretreatment with tetrabenazine (2 mg/kg), which was administered 15 min prior to the administration of [^18F]FE-DTBZ-d4. In NHP2, two displacement experiments were performed with the administration of tetrabenazine (2 mg/kg) 25 min after the injection of [^18F]FE-DTBZ-d4.
The regions of interest (ROIs) were delineated manually on the MRI images of each NHP for putamen, caudate, midbrain, occipital cortex, and cerebellum. The MRI of all of the individual NHPs was coregistered to summed PET images of the whole PET measurement. The time–activity curves of NHP brain regions were generated from dynamic PET data with the application of the coregistration parameters to ROIs. Quantification was performed using the Logan graphical analysis, and the cerebellum was used as a reference region. The outcome measure was the binding potential (BPND).
The test system of series [8] is VMAT2. As to conditions: cited from earlier work.

As to `COc1cc2c(cc1OCC[18F])CCN1C[C@@H](CC(C)C)[C@H](O)C[C@H]21` [[^18F]FE-DTBZ, ^18F-fluoroethyl-(+)-dihydrotetrabenazine], the striatum-to-cerebellum ratio result in the series on VMAT2 [1] was “relatively poor”. Also, the fraction unbound at 10 min, 36 MBq/mL in series [2] came out at 0.56. In addition, the in vivo metabolism result in series [3] (large piglet model) is given as “metabolized extensively by in vivo defluorination”. For the same compound, in series [4], the “brain uptake (SUV)” value stood at 3.43 ± 0.54. Also, in series [5], the “percent of unchanged radioligand in plasma” value was 10 ± 4%. Moreover, in the series on VMAT2 [6], the “Binding potential (BPND) caudate” value came out at 3.8 ± 0.5, the peak equilibrium was above 60 min, the “Binding potential (BPND) midbrain” value was determined as 1.1 ± 0.1 and the “Binding potential (BPND) putamen” value stood at 4.7 ± 0.3.
Regarding `COc1cc2c(cc1OC)C1CC(=O)C(CC(C)C)CN1CC2` (centres unmarked) [tetrabenazine], the “uptake of [^18F]FE-DTBZ-d4 in caudate, putamen, and midbrain after pretreatment” value in the series on VMAT2 [7] (15 min prior to radioligand injection) was “decreased almost to the level of the cerebellum and occipital cortex”. Also, the “uptake of [^18F]FE-DTBZ-d4 in caudate, putamen, and midbrain in displacement experiment” value in the series with VMAT2 [7] (25 min after radioligand injection) was “clear reduction”.
As to `[2H]C([2H])([18F])C([2H])([2H])Oc1cc2c(cc1OC)[C@H]1C[C@@H](O)[C@H](CC(C)C)CN1CC2` [[^18F]FE-DTBZ-d4], in series [2], the fraction unbound at 10 min, 36 MBq/mL was determined as 0.52 ± 0.01. Moreover, the bone uptake entry in series [3] (PET/CT in pigs, compared with [^18F]FE-(+)-DTBZ) is reported as “lower bone uptake”. Further, the “brain uptake (SUV)” value in series [4] is reported as 4.28 ± 1.01. The “percent of unchanged radioligand in plasma” value in series [5] is listed as 30 ± 17%. In the series on VMAT2 [6], the “Binding potential (BPND) caudate” value worked out at 4.4 ± 1.1, the peak equilibrium is recorded as 40 min, the “Binding potential (BPND) midbrain” value is 1.4 ± 0.4 and the “Binding potential (BPND) putamen” value is listed as 5.5 ± 1.4.
On to `COc1cc2c(cc1OC)[C@H]1C[C@@H](O)[C@H](CC(C)C)CN1CC2` (single isomer, unassigned) [(+)-enantiomer, dihydrotetrabenazine], for which the “better binding affinity over the (−)-enantiomer” value in the series on VMAT2 [8] is 1000 fold.
